# Source: paper PMC9321742 (Viruses, 2022)
# “And” between values parts separate entries of the source, which are not always exact repeats. Identical values can stand only once.
# Tested on: SARS-CoV-2 B.1 (D614G) wild-type
# Assay type: cell-based
structure (smiles),measurement,setting,value
O=c1nc(NO)ccn1[C@@H]1O[C@H](CO)[C@@H](O)[C@H]1O [EIDD-1931],Increase in antiviral activity by the P-gp inhibitor,,negligible
same,IC50,read-out: IC50 WT Mean ± SD,1.1 µM and 1.5 µM
